Assay results reported in the supplement of paper PMC10307832.

Compound: COc1cc2ncn(-c3cc(OCc4ccccc4C(F)(F)F)c(C(N)=O)s3)c2cc1OC
Experiment: relative viability (nuclei count vs DMSO), 5 days (fraction); higher = more cells survive
Outline: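 Hoechst staining, done together with fixation and permeabilisation, marked nuclei for 4× imaging and MetaXpress counting. This followed 5 days without medium change after lung cancer cell lines, kept overnight at 37 °C in 1536-well plates, were pinned with five library-drug doses (not always all listed) spaced by √10 on vehicle-anchored plates. Viability is the ratio of treated-well to vehicle-well nuclei, expressed as a median across plates. Plates passed only at control CV below 25% with at least one doubling.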

Row | Cell Line | relative viability (0.05 µM) | relative viability (0.1581 µM) | relative viability (0.5 µM) | relative viability (1.581 µM) | relative viability (5 µM)
1 | COR-L 105 | 0.908 | 0.903 | 0.654 | 0.407 | 0.272
2 | LK-2 | 1.07 | 1.03 | 0.446 | 0.222 | 0.211
3 | NCI-H838 | 0.971 | 1.03 | 0.764 | 0.176 | 0.153
4 | SK-LU-1 | 1.05 | 0.871 | 0.603 | 0.261 | 0.233
5 | NCI-H2023 | 0.955 | 1.07 | 0.566 | 0.115 | 0.0893
6 | NCI-H322M | 0.982 | 1.11 | 0.79 | 0.517 | 0.325
7 | NCI-H1666 | 0.971 | 0.907 | 0.74 | 0.451 | 0.449
8 | NCI-H1648 | 1.04 | 0.919 | 0.404 | 0.241 | 0.181
9 | NCI-H2087 | 1.08 | 0.923 | 0.628 | 0.135 | 0.124
10 | LU99A | 0.894 | 1.08 | 0.681 | 0.253 | 0.203
11 | HCC-366 | 1.02 | 0.927 | 0.429 | 0.0311 | 0.0273
12 | EKVX | 1.02 | 0.99 | 0.77 | 0.394 | 0.629
13 | NCI-H522 | 1.02 | 0.91 | 0.935 | 0.561 | 0.308
14 | NCI-H1755 | 0.965 | 1.02 | 0.96 | 0.475 | 0.371
15 | NCI-H650 | 0.913 | 0.961 | 0.69 | 0.33 | 0.349
16 | LC-2-ad | 0.941 | 0.918 | 0.351 | 0.195 | 0.227
17 | NCI-H1793 | 1.08 | 1.12 | 0.568 | 0.208 | 0.191
18 | HCC-827 | 1.04 | 0.986 | 0.901 | 0.541 | 0.341
19 | HCC-78 | 1.03 | 0.998 | 0.749 | 0.623 | 0.47
20 | NCI-H2085 | 0.925 | 1.03 | 0.759 | 0.402 | 0.407
21 | PC-3 [JPC-3] | 1.06 | 0.985 | 0.636 | 0.303 | 0.296
22 | NCI-H2342 | 1.09 | 1 | 0.855 | 0.623 | 0.466
23 | A-427 | 1.05 | 1 | 0.886 | 0.297 | 0.128
24 | H3255 | 0.971 | 0.947 | 0.866 | 0.398 | 0.608
25 | HCC-44 | 0.985 | 1 | 0.871 | 0.204 | 0.211
26 | NCI-H1734 | 1.02 | 1.02 | 0.591 | 0.224 | 0.174

Row | Cell Line | relative viability (0.05 µM) | relative viability (0.1581 µM) | relative viability (0.5 µM) | relative viability (1.581 µM) | relative viability (5 µM)
27 | NCI-H2228 | 1.01 | 0.853 | 0.417 | 0.166 | 0.188
28 | ABC-1 | 0.807 | 0.937 | 0.736 | 0.311 | 0.241
29 | COR-L23 | 1.05 | 1.03 | 0.692 | 0.128 | 0.147
30 | NCI-H727 | 0.991 | 0.752 | 0.687 | 0.395 | 0.417
31 | NCI-H1993 | 1.1 | 0.855 | 0.469 | 0.605 | 0.534
32 | NCI-H1437 | 1.02 | 0.898 | 0.507 | 0.21 | 0.18
33 | NCI-H596 | 0.946 | 1.04 | 0.756 | 0.406 | 0.284
34 | 201T | 0.994 | 1.02 | 0.995 | 0.377 | 0.294
35 | NCI-H358 | 0.908 | 1.03 | 0.475 | 0.166 | 0.164
36 | ChaGo-K-1 | 1.04 | 0.991 | 0.948 | 0.335 | 0.2
37 | NCI-H1650 | 0.899 | 0.951 | 0.396 | 0.19 | 0.147
38 | LOU-NH91 | 0.97 | 1.03 | 0.801 | 0.455 | 0.531
39 | HOP-62 | 1.03 | 1.01 | 0.861 | 0.336 | 0.161
40 | NCI-H1915 | 1.01 | 0.947 | 0.784 | 0.132 | 0.105
41 | NCI-H3122 | 1 | 0.872 | 0.317 | 0.145 | 0.173
42 | NCI-H1651 | 1.05 | 0.992 | 0.77 | 0.398 | 0.221
43 | EBC-1 | 0.924 | 0.929 | 0.301 | 0.19 | 0.157
44 | PC-14 | 0.988 | 0.923 | 0.661 | 0.141 | 0.0894
45 | NCI-H647 | 0.956 | 0.881 | 0.432 | 0.0899 | 0.0672
46 | SW 1573 | 1.06 | 0.963 | 0.547 | 0.173 | 0.325
47 | NCI-H441 | 0.846 | 0.683 | 0.209 | 0.217 | 0.196
48 | NCI-H661 | 0.979 | 0.998 | 0.685 | 0.348 | 0.333
49 | SK-MES-1 | 1.02 | 0.931 | 0.622 | 0.194 | 0.269
50 | NCI-H1792 | 1.11 | 0.894 | 0.403 | 0.16 | 0.103
51 | NCI-H1355 | 0.974 | 0.957 | 0.534 | 0.197 | 0.185
52 | UMC-11 | 0.913 | 0.708 | 0.329 | 0.182 | 0.145

Row | Cell Line | relative viability (0.05 µM) | relative viability (0.1581 µM) | relative viability (0.5 µM) | relative viability (1.581 µM) | relative viability (5 µM)
53 | A549 | 0.987 | 1.01 | 0.399 | 0.0506 | 0.054
54 | NCI-H2347 | 1.05 | 0.932 | 0.848 | 0.564 | 0.501
55 | LCLC-97TM1 | 1.1 | 1.08 | 0.665 | 0.132 | 0.127
56 | EMC-BAC-2 | 1.29 | 1.06 | 0.805 | 0.435 | 0.239
57 | NCI-H1975 | 1.09 | 0.902 | 0.643 | 0.226 | 0.17
58 | BEN | 1.01 | 0.965 | 0.845 | 0.396 | 0.383
59 | NCI-H1703 | 1.1 | 0.886 | 0.52 | 0.148 | 0.194
60 | NCI-H23 | 0.999 | 0.635 | 0.348 | 0.151 | 0.115
61 | NCI-H520 | 0.946 | 0.975 | 0.649 | 0.212 | 0.198
62 | CAL-12T | 0.827 | 0.836 | 0.565 | 0.249 | 0.193
63 | EPLC-272H | 0.615 | 0.946 | 0.269 | 0.124 | 0.101
64 | LCLC-103H | 1.02 | 1.12 | 0.915 | 0.442 | 0.224
65 | NCI-H2405 | 1.13 | 0.769 | 0.665 | 0.428 | 0.351
66 | HCC-15 | 0.944 | 0.964 | 0.437 | 0.157 | 0.122
67 | RERF-LC-KJ | 0.987 | 1.07 | 0.584 | 0.297 | 0.471
68 | NCI-H1944 | 1.18 | 1.03 | 0.707 | 0.23 | 0.141
69 | HARA | 1.01 | 0.853 | 0.8 | 0.176 | 0.0967
70 | NCI-H1563 | 1.02 | 0.984 | 0.888 | 0.865 | 0.654
71 | NCI-H2126 | 1.02 | 1 | 0.754 | 0.329 | 0.236
72 | LXF-289 | 0.977 | 0.82 | 0.674 | 0.132 | 0.0998
73 | NCI-H460 | 0.986 | 0.946 | 0.603 | 0.0622 | 0.0847
74 | NCI-H1395 | 0.964 | 0.925 | 0.68 | 0.4 | 0.314
75 | NCI-H2170 | 1.01 | 0.907 | 0.473 | 0.202 | 0.197
76 | NCI-H2009 | 0.909 | 0.905 | 0.472 | 0.232 | 0.174
